Legend:
[1] = system: Smn protein; assay: Smn protein assay in cultured cells (SMN HTRF); type: cell-based, human; details: 48 hours; for maximum fold (Fold) increase of Smn protein: SMA patient fibroblast cells, 7-point concentration data, fold increase relative to vehicle control (SMN HTRF); for EC1.5x (concentration giving 1.5-fold Smn protein increase): SMA Type 1 patient fibroblast cells (GM03813), 7-point concentration curve, SMN HTRF, concentration producing 1.5 times Smn protein vs DMSO vehicle control, read-out: EC1.5x for Smn protein expression
Summary of the method: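 Smn in SMA fibroblast lysates, measured by anti-SMN HTRF after 48 h compound exposure; EC1.5x from fold change over vehicle.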

[2] = system: SMN2 minigene (full length SMN2 minigene mRNA containing SMN2 exon 7); assay: SMN2 minigene mRNA splicing RT-qPCR assay in cultured cells; type: cell-based, human; details: Homo sapiens, HEK293-H; HEK293H cells stably transfected with SMN2-A minigene; 24 hours; 7-point concentration curve; 1.5-fold relative to vehicle-treated cells; read-out: EC1.5x for production of full length SMN2 mRNA
Summary of the method: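 Full-length SMN2 minigene mRNA (exon 7 included), minigene-specific and not endogenous SMN, quantified by RT-qPCR multiplexed with GAPDH in stably transfected HEK293H cells after 24 h compound exposure at 37° C. Abundance from efficiency-corrected Ct, normalized to GAPDH and vehicle; EC1.5x reported as star bins.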

| melting point [°C] | SMILES | maximum fold (Fold) increase of Smn protein [1] | EC (1.5-fold) [2] [µM] | EC1.5x (concentration giving 1.5-fold Smn protein increase) [1] [nM] |
| --- | --- | --- | --- | --- |
| 245 to 250 | O=c1oc2cc(N3CCN(CCO)CC3)ccc2cc1-c1cn2cc(Cl)ccc2n1 [Compound 104, 3-(6-chloroimidazo[1,2-a]pyridin-2-yl)-7-[4-(2-hydroxyethyl)piperazin-1-yl]-2H-chromen-2-one] | *** (fold increase between >1.35 and ≤1.5) | 3 to 30 | – |
| 179 to 186 | Cc1cn2cc(-c3cc4ccc(N(C)[C@@H]5CCN(C)C5)cc4oc3=O)nc2c(C)n1 [Compound 707, 3-(6,8-dimethylimidazo[1,2-a]pyrazin-2-yl)-7-{methyl[(3R)-1-methylpyrrolidin-3-yl]amino}-2H-chromen-2-one] | **** (fold increase between >1.5 and ≤1.65) | < 0.1 | 300 to 1000 |
| 188 to 190 | Cc1cn2cc(-c3cc4ccc(N5CCCNCC5)cc4oc3=O)nc2c(C)n1 [Compound 518, 7-(1,4-diazepan-1-yl)-3-(6,8-dimethylimidazo[1,2-a]pyrazin-2-yl)-2H-chromen-2-one] | ***** (fold increase >1.65) | < 0.1 | < 300 |
| 165 to 168 | CCN(CC)CCCc1ccc2cc(-c3cn4cc(C)nc(C)c4n3)c(=O)oc2c1 [Compound 969, 7-[3-(diethylamino)propyl]-3-(6,8-dimethylimidazo[1,2-a]pyrazin-2-yl)-2H-chromen-2-one] | **** (fold increase between >1.5 and ≤1.65) | < 0.1 | < 300 |
| 248 to 252 | O=c1oc2cc(CN3CCC(O)CC3)ccc2cc1-c1cn2ccsc2n1 [Compound 346, 7-[(4-hydroxypiperidin-1-yl)methyl]-3-(imidazo[2,1-b][1,3]thiazol-6-yl)-2H-chromen-2-one] | ** (fold increase between >1.2 and ≤1.35) | 3 to 30 | – |
| 271 to 274 | Cc1cn2cc(-c3cc4ccc(N5C[C@@H]6[C@H](C5)[C@H]6N(C)C)cc4oc3=O)nc2c(C)n1 [Compound 761, 7-[(1R,5S,6s)-6-(dimethylamino)-3-azabicyclo[3.1.0]hex-3-yl]-3-(6,8-dimethylimidazo[1,2-a]pyrazin-2-yl)-2H-chromen-2-one] | **** (fold increase between >1.5 and ≤1.65) | < 0.1 | < 300 |
| 271 to 281 | Cc1cc(Cl)cn2cc(-c3cc4ccc(N5C[C@@H](C)N[C@@H](C)C5)cc4oc3=O)nc12 [Compound 265, 3-(6-chloro-8-methylimidazo[1,2-a]pyridin-2-yl)-7-[(3R,5S)-3,5-dimethylpiperazin-1-yl]-2H-chromen-2-one] | * (maximum fold increase of ≤1.2) | 1 to 3 | – |
| 243 to 253 | Cc1cn2cc(-c3cc4ccc(N5CC[C@H]6CNC[C@H]65)cc4oc3=O)nc2c(C)n1 [Compound 687, 3-(6,8-dimethylimidazo[1,2-a]pyrazin-2-yl)-7-[(3aS,6aS)-hexahydropyrrolo[3,4-b]pyrrol-1(2H)-yl]-2H-chromen-2-one] | *** (fold increase between >1.35 and ≤1.5) | < 0.1 | 1000 to 3000 |
| 191 to 195 | O=c1oc2cc(CN3CCCCC3)ccc2cc1-c1nc2c(Cl)cccc2s1 [Compound 60, 3-(4-chloro-1,3-benzothiazol-2-yl)-7-(piperidin-1-ylmethyl)-2H-chromen-2-one] | ** (fold increase between >1.2 and ≤1.35) | 1 to 3 | – |
| 261 to 271 | O=c1oc2cc(N3CCNCC3)ccc2cc1-c1cn2cc(C3CC3)cc(F)c2n1 [Compound 500, 3-(6-cyclopropyl-8-fluoroimidazo[1,2-a]pyridin-2-yl)-7-(piperazin-1-yl)-2H-chromen-2-one] | * (maximum fold increase of ≤1.2) | 0.3 to 1 | – |
| 278 to 282 | O=c1oc2cc(CO)cc(F)c2cc1-c1cn2ccsc2n1 [Compound 397, 5-fluoro-7-(hydroxymethyl)-3-(imidazo[2,1-b][1,3]thiazol-6-yl)-2H-chromen-2-one] | * (maximum fold increase of ≤1.2) | 3 to 30 | – |
| 167 to 169 | Cc1ccc2nc(-c3cc4ccc(N5CCCC(N(C)C)C5)cc4oc3=O)cn2c1 (centres unmarked) [Compound 200, 7-[3-(dimethylamino)piperidin-1-yl]-3-(6-methylimidazo[1,2-a]pyridin-2-yl)-2H-chromen-2-one] | * (maximum fold increase of ≤1.2) | 3 to 30 | – |
| 162 to 165 | Cc1cn2cc(-c3cc4ccc(N5CCN[C@@H](C)C5)cc4oc3=O)cc2c(C)n1 [Compound 680, 3-(1,3-dimethylpyrrolo[1,2-a]pyrazin-7-yl)-7-[(3S)-3-methylpiperazin-1-yl]-2H-chromen-2-one] | **** (fold increase between >1.5 and ≤1.65) | < 0.1 | < 300 |
| 177 to 180 | Cc1ccc2nc(-c3cc4ccc(N5CCNC(C)(C)C5)cc4oc3=O)cn2c1 [Compound 222, 7-(3,3-dimethylpiperazin-1-yl)-3-(6-methylimidazo[1,2-a]pyridin-2-yl)-2H-chromen-2-one] | * (maximum fold increase of ≤1.2) | 1 to 3 | – |
| 300 to 302 | CCN1CCN(c2ccc3cc(-c4cn5cccnc5n4)c(=O)oc3c2)CC1 [Compound 108, 7-(4-ethylpiperazin-1-yl)-3-(imidazo[1,2-a]pyrimidin-2-yl)-2H-chromen-2-one] | **** (fold increase between >1.5 and ≤1.65) | 1 to 3 | 300 to 1000 |
| 190 to 192 | Cc1nccn2cc(-c3cc4ccc(N5CCN(C)CC5)cc4oc3=O)cc12 [Compound 557, 7-(4-methylpiperazin-1-yl)-3-(1-methylpyrrolo[1,2-a]pyrazin-7-yl)-2H-chromen-2-one] | *** (fold increase between >1.35 and ≤1.5) | 0.3 to 1 | – |
| 127 to 131 | Cc1cn2cc(-c3cc4ccc(N5CCN(C)CC5)cc4oc3=O)cc2c(C)n1 [Compound 644, 3-(1,3-dimethylpyrrolo[1,2-a]pyrazin-7-yl)-7-(4-methylpiperazin-1-yl)-2H-chromen-2-one] | ***** (fold increase >1.65) | < 0.1 | < 300 |
| 258 to 260 | O=c1oc2cc(N3CCNCC3)ccc2cc1-c1cn2ccncc2n1 [Cpd 456, 3-(imidazo[1,2-a]pyrazin-2-yl)-7-(piperazin-1-yl)-2H-chromen-2-one] | **** (fold increase between >1.5 and ≤1.65) | < 0.1 | 1000 to 3000 |
| 217 to 220 | Cc1cn2cc(-c3cc4ccc(N5CC[C@H](NC(C)C)C5)cc4oc3=O)cc2c(C)n1 [Compound 725, 3-(1,3-dimethylpyrrolo[1,2-a]pyrazin-7-yl)-7-[(3S)-3-(propan-2-ylamino)pyrrolidin-1-yl]-2H-chromen-2-one] | *** (fold increase between >1.35 and ≤1.5) | < 0.1 | 300 to 1000 |
| 215 to 218 | CN1CCC(c2ccc3cc(-c4ccc5nn(C)cc5c4)c(=O)oc3c2)CC1 [Compound 862, 3-(2-methyl-2H-indazol-5-yl)-7-(1-methylpiperidin-4-yl)-2H-chromen-2-one] | ***** (fold increase >1.65) | < 0.1 | 300 to 1000 |
| 194 to 197 | O=c1oc2cc(CNC(CO)CO)ccc2cc1-c1nc2ccccc2s1 [Compound 99, 3-(1,3-benzothiazol-2-yl)-7-{[(1,3-dihydroxypropan-2-yl)amino]methyl}-2H-chromen-2-one] | * (maximum fold increase of ≤1.2) | 3 to 30 | – |

Source: patent USRE47689E1, “Compounds for treating spinal muscular atrophy” (PTC Therapeutics, Inc., priority 2011, dated 2019)
